In one data set the test system is Escherichia coli. Nature of the data set: Antimicrobial activity against Escherichia coli. It counts as functional, organism-based.
Data set [1] concerns Cladosporium cucumerinum. Nature of the data set: Antimicrobial activity against Cladosporium cucumerinum at 50 nmol after 2 days by TLC based bioautography method. It counts as functional.
The subject of data set [2] is Cladosporium cucumerinum. Nature of the data set: Antimicrobial activity against Cladosporium cucumerinum at 25 nmol after 2 days by TLC based bioautography method. It counts as functional.
A short description of data set [3]: Toxicity against Artemia salina. It counts as organism-based. To be noted: in vivo.

Structures are written as SMILES. ≈ marks a conversion by molar mass, not a printed value. Calls of active or inactive are those of the source. The rule behind the calls is not given here.

For `Oc1c(Br)c(Br)c(Br)c(Br)c1Oc1ccccc1Br`, the result in the data set with Escherichia coli was inactive. The figures for the “inhibition zone (IZ)” value in the data set with Cladosporium cucumerinum [1] and with Cladosporium cucumerinum [2] were 14 mm and 7 mm, respectively. The LC50 in data set [3] came to 0.96 µg/mL (≈ 1.65 µM).

As for `COc1c(Br)cc(Br)c(Br)c1Oc1ccccc1Br`, the result in the data set on Escherichia coli was inactive. The molecule also came in with an LC50 in data set [3] of 26.2 µg/mL (≈ 50.9 µM).

As to `Oc1c(Br)c(Br)c(Br)c(Br)c1Oc1ccc(Br)cc1Br`, the result in the data set on Escherichia coli was inactive. The “inhibition zone (IZ)” value with Cladosporium cucumerinum [1] was 8 mm; with Cladosporium cucumerinum [2], 5 mm. This molecule also came in with an LC50 in data set [3] of 0.94 µg/mL (≈ 1.43 µM).

As for `Oc1cc(Br)c(Br)c(Br)c1Oc1ccccc1Br`, in the data set with Escherichia coli, the outcome was inactive. The “inhibition zone (IZ)” value in the data set with Cladosporium cucumerinum [1] was 13 mm; in the data set with Cladosporium cucumerinum [2] it was 8 mm. For the same molecule, the LC50 in data set [3] turned out to be 3.3 µg/mL (≈ 6.58 µM).

In the case of `Oc1c(Br)cc(Br)cc1Oc1ccc(Br)cc1Br`, the result with Escherichia coli was inactive. The “inhibition zone (IZ)” value was determined as 3.5 mm in the data set with Cladosporium cucumerinum [1] and 1.5 mm in the data set with Cladosporium cucumerinum [2]. The same molecule yielded an LC50 in data set [3] of 8.66 µg/mL (≈ 17.3 µM).

The values above are taken from ChEMBL document CHEMBL1158872, “Four new bioactive polybrominated diphenyl ethers of the sponge Dysidea herbacea from West Sumatra, Indonesia” (J Nat Prod, 1997).
